Experimental data as given in paper PMC9529985, “Eco-friendly methods of synthesis and preliminary biological evaluation of sulfonamide derivatives of cyclic arylguanidines” (Ultrasonics Sonochemistry, 2022).
Read-outs that look alike come from different tables or passages of the source.

Assays:
[1] = Metabolic stability in mouse liver microsomes (MLMs); assay type: in vitro ADME; conditions: for Metabolic pathway: metabolites identified by UPLC-MS; for remaining at 2 h, 50 µM: mouse, liver microsomes, MLMs 1 mg/ml
Method: The ADME-Tox parameters of 10f were analyzed according to described previously protocols, [45] and included: Parallel Artificial Membrane Permeability Assay (PAMPA) passive permeability testing, the influence on CYP3A4 activity, metabolic stability in mouse liver microsomes, and hepatotoxicity assessment with HepG2 cells.
The metabolic stability of 10f was estimated with mouse liver microsomes (MLMs) (Sigma-Aldrich, St. Louis, MO, USA). The tested compound (50 µM) was incubated in the presence of MLMs (1 mg/ml) for 120 min in a buffer (10 mM Tris–HCl buffer at 37 °C). Then, to terminate the reaction, cold methanol was added to the reaction mixture. The precipitated MLMs were centrifuged and the supernatant was analyzed with a LC/MS Waters ACQUITY™ TQD system with the TQ Detector (Waters, Milford, USA).

[2] = PAMPA passive permeability; assay type: in vitro ADME; conditions: PBS pH 7.4, 5 h, room temperature
Method: The ADME-Tox parameters of 10f were analyzed according to described previously protocols, [45] and included: Parallel Artificial Membrane Permeability Assay (PAMPA) passive permeability testing, the influence on CYP3A4 activity, metabolic stability in mouse liver microsomes, and hepatotoxicity assessment with HepG2 cells. The pre-coated PAMPA Plate System Gentest was sourced from Corning (Tewksbury, MA, USA). […] The plate was incubated at room temperature for 5 h without stirring. Then, 50 μL was aspirated from both Acceptor (A) and Donor (D) wells and then diluted with a 50 µL solution of an internal standard (IS). The concentrations of the tested compounds in the A and D wells were estimated with an LC/MS Waters ACQUITY™ TQD system with the TQ Detector (Waters, Milford, USA). The Pe values were estimated according to the proper formulas provided by Corning and described previously in the literature.

[3] = test system: human astrocytoma cell line 1321 N1; assay: MTS cytotoxicity test in 1321 N1 astrocytoma cells; assay type: cell-based; conditions: 1321 N1 cells; for concentration at which activity (statistically significant suppression of cell viability) was seen / IC50: MTS; for viability of the cells compared to vehicle control: 24 h exposure; for IC50: 50 % decrease relative to the maximum inhibition observed, read-out: IC50 (cell viability)
Method: (§1) The cytotoxic properties of newly synthetized compounds were assessed in human astrocytoma cell line 1321 N1 (RRID:CVCL_0110, European Collection of Authenticated Cell Cultures, ECACC:86030402) and human breast adenocarcinoma cell line MDA-MB-231 (RRID:CVCL_0062; ATCC:HTB-26). ECACC and ATCC perform thorough cell line authentication utilizing Short Tandem Repeat (STR) profiling. Upon receipt of the cell lines, the cells were expanded for a few passages to enable the generation of new frozen stocks. The cells were resuscitated as needed and used for<6 months after resuscitation (no>15 passages). Cell line 1321 N1 was cultured in high-glucose (4500 mg/L) Dulbecco's modified Eagle's medium (DMEM) supplemented with 10 % fetal bovine serum (FBS). The MDA-MB-231 cells were maintained in RPMI-1640 with 10 % FBS. All cell culture media were additionally fortified with penicillin (100 U/mL), streptomycin (100 µg/mL), and amphotericin B (250 ng/mL) to prevent bacterial and yeast contamination. The cell culture media and supplements used in this study were purchased from Sigma-Aldrich. The cells were maintained at 37 °C in a humidified 5 % incubator in an atmosphere of 5 % CO2 and 95 % air.
The cells were subcultured upon reaching the confluency of about 80 %. Cell detachment was facilitated with TrypLE solution (Thermo Fisher Scientific). The cells were counted in a Z2 particle counter (Beckman Coulter), then plated at 5,000 cells/well in 96-well plates (Eppendorf) in 100 µL of full growth medium and cultured overnight to enable cell attachment. Next day, the cells were subjected to either vehicle (0.1 % DMSO) or our compounds of interest for 24, 48, or 72 h. The assessment of cell viability was performed by adding 20 µL/well of the mixture of 3-(4,5-dimethylthiazol-2-yl)-5-(3-carboxymethoxyphenyl)-2-(4-sulfophenyl)–2H-tetrazolium, inner salt (MTS) and phenazine ethosulfate from Promega (#G3580). After 3 h of incubation, the absorbance was recorded at 490 nm using Synergy H1 plate reader (Biotek) The experiments were carried out in quadruplicates and were repeated three times. The obtained values were normalized to vehicle control and plotted.
The IC50 values were calculated with GraphPad Prism 8.0.1 software (nonlinear regression, log(inhibitor) vs normalized response) as the dose that causes a 50 % decrease in cell viability relative to the maximum inhibition observed. Statistical significance determination was evaluated with GraphPad Prism 5.0.1 software using one-way ANOVA, followed by Bonferroni’s comparison test (p < 0.05).

[4] = test system: HepG2 human hepatoma cell line; assay: Hepatotoxicity, MTS assay in HepG2 cells; assay type: cell-based; conditions: 72 h (Fig. 6 legend)
Method: Hepatotoxicity was evaluated by means of an MTS assay described above (section 23) with a HepG2 human hepatoma cell line (ATCC:HB-8065), [48]. […] Compound 10f was tested in a single experiment in quadruplicate.

[5] = Metabolic stability in mouse liver microsomes (MLMs); assay type: in vitro ADME; conditions: TRIS-HCl pH 7.4 buffer solution without microsomes, 120 min
[6] = test system: human breast adenocarcinoma cell line MDA-MB-231; assay: MTS cytotoxicity test in MDA-MB-231 cells; assay type: cell-based; conditions: 24 h, read-out: IC50 (cell viability)
Method: as §1, with “All cell culture media were additionally fortified with penicillin (100 U/mL), streptomycin (100 µg/mL), and amphotericin B (250 ng/mL) to prevent bacterial and yeast contamination. The cell culture media and supplements used in this study were purchased from Sigma-Aldrich. The cells were maintained at 37 °C in a humidified 5 % incubator in an atmosphere of 5 % CO2 and 95 % air.” left out
The cells were subcultured upon reaching the confluency of about 80 %. […] The cells were counted in a Z2 particle counter (Beckman Coulter), then plated at 5,000 cells/well in 96-well plates (Eppendorf) in 100 µL of full growth medium and cultured overnight to enable cell attachment. […] After 3 h of incubation, the absorbance was recorded at 490 nm using Synergy H1 plate reader (Biotek) The experiments were carried out in quadruplicates and were repeated three times. […]

SMILES: Nc1nc2ccccc2n1S(=O)(=O)c1ccc2ccccc2c1 [11c, 1-(naphthalene-2-sulfonyl)-1H-benzimidazol-2-amine]
- melting point: 188 to 194 °C

SMILES: O=S(=O)(NC1=NCc2ccccc2N1)c1cccc2ccccc12 [10f, N-(1,4-dihydroquinazolin-2-yl)naphthalene-1-sulfonamide]
- metabolic stability (in words) ([1]; MLMs, 120 min): unstable
- metabolized ([1]; MLMs, 120 min incubation, UPLC): 97%
- Metabolic pathway ([1]; MLMs): double hydroxylation and double bound reduction
- remaining at 2 h, 50 µM ([1]; 120 min): 3%
- Papp at 5 h, 200 µM ([2]; read-out: permeability coefficient Pe): 5 ± 1.5 ×10⁻⁶ cm/s
- concentration at which activity (statistically significant suppression of cell viability) was seen ([3]; 24 h): 1 µM
- viability of the cells compared to vehicle control [3]: 48.0%
- IC50 ([3]; Homo sapiens, 24 h): 8.22 µM
- viability at 50 µM ([3]; Homo sapiens, 72 h, 50 µM, read-out: cells still viable): 32%
- IC50 ([3]; Homo sapiens, 72 h): 0.13 µM
- hepatotoxicity (in words) ([4]; HepG2, 1–10 µM): did not exhibit hepatotoxic properties
- effect on cell viability (in words) ([4]; HepG2, 50 or 100 µM): statistically significant decrease in cells viability
- dehydrogenation in control sample [5]: 5%

SMILES: O=S(=O)(Nc1nc2ccccc2[nH]1)c1ccccc1 [10a, N-(1H-benzimidazol-2-yl)benzenesulfonamide]
- melting point: > 300 °C

SMILES: O=S(=O)(NC1=NCc2ccccc2N1)c1ccccc1 [10e, N-(1,4-dihydroquinazolin-2-yl)benzenesulfonamide]
- melting point: 182 to 186 °C

SMILES: COc1cccc2c1C(=O)c1c(O)c3c(c(O)c1C2=O)C[C@@](O)(C(=O)CO)C[C@@H]3O[C@H]1C[C@H](N)[C@H](O)[C@H](C)O1 [doxorubicin, reference compound]
- viability of the cells compared to vehicle control [3]: 47.5%
- IC50 ([3]; Homo sapiens, 24 h): 1.1 µM
- IC50 [6]: 1.4 µM

SMILES: O=S(=O)(NC1=NCc2cc(Cl)ccc2N1)c1ccc2ccccc2c1 [10h, N-(6-chloro-1,4-dihydroquinazolin-2-yl)naphthalene-2-sulfonamide]
- melting point: 207 to 209 °C

SMILES: Nc1nc2cc(Cl)ccc2n1S(=O)(=O)c1cccc2ccccc12 [11d, 5-chloro-1-(naphthalene-1-sulfonyl)-1H-benzimidazol-2-amine]
- concentration at which activity (statistically significant suppression of cell viability) was seen ([3]; 24 h): 1 µM
- melting point: 225 to 229 °C

SMILES: O=S(=O)(NC1=NCc2ccccc2N1)c1ccc2ccccc2c1 [10g, N-(1,4-dihydroquinazolin-2-yl)naphthalene-2-sulfonamide]
- melting point: > 300 °C

SMILES: Cn1c(=O)c2c(ncn2C)n(C)c1=O [caffeine, reference compound]
- permeability coefficient Pe ([2]; 200 µM): 12.2 ± 0.9 × 10^-6 cm/s

SMILES: O=S(=O)(Nc1ncc2ccccc2n1)c1cccc2ccccc12 [Dehydrogenated-10f, N-(quinazolin-2-yl)naphthalene-1-sulfonamide]
- Metabolic pathway ([1]; MLMs): double hydroxylation
- remaining at 2 h, 50 µM ([1]; 120 min): 17.5%
